According to ChEMBL document CHEMBL1135175, “Synthesis and bioactivities of novel bicyclic thiophenes and 4,5,6,7-tetrahydrothieno[2,3-c]pyridines as inhibitors of tumor necrosis factor-alpha (TNF-alpha) production” (Bioorg Med Chem Lett, 2002):

Key:
Rattus norvegicus [1] = organism: Rattus norvegicus; experiment: Evaluated for its ability to inhibit LPS stimulated production of TNF-alpha in rat whole blood; type: functional, organism-based
Rattus norvegicus [2] = experiment: TNF-alpha inhibiting activity by in vivo inhibition of serum TNF production in rat at 50 mg/kg, peroral administration.; type: functional; conditions: route oral
Rattus norvegicus [3] = experiment: Compound was evaluated for percentage recovery from GAG in adjuvant-induced arthritic model of rat at a dose of 10 mg/kg; type: functional, organism-based; set-up: dose 10 mg/kg
Rattus norvegicus [4] = experiment: Compound was evaluated for percentage recovery from femur weight in adjuvant-induced arthritic model of rat at a dose of 10 mg/kg; type: functional, organism-based; set-up: dose 10 mg/kg
Rattus norvegicus [5] = experiment: Compound was evaluated for percentage recovery from paw edema in adjuvant-induced arthritic model of rat at a dose of 10 mg/kg; type: functional, organism-based; set-up: dose 10 mg/kg
Rattus norvegicus [6] = experiment: Compound was evaluated for percentage recovery from GAG in adjuvant-induced arthritic model of rat at a dose of 50 mg/kg; type: functional
Rattus norvegicus [7] = experiment: Compound was evaluated for percentage recovery from femur weight in adjuvant-induced arthritic model of rat at a dose of 50 mg/kg; type: functional
Rattus norvegicus [8] = experiment: Compound was evaluated for percentage recovery from paw edema in adjuvant-induced arthritic model of rat at a dose of 50 mg/kg; type: functional
Rattus norvegicus [9] = experiment: Compound was evaluated for percentage recovery from GAG in adjuvant-induced arthritic model of rat at a dose of 2 mg/kg; type: functional
Rattus norvegicus [10] = experiment: Compound was evaluated for percentage recovery from femur weight in adjuvant-induced arthritic model of rat at a dose of 2 mg/kg; type: functional
Rattus norvegicus [11] = experiment: Compound was evaluated for percentage recovery from paw edema in adjuvant-induced arthritic model of rat at a dose of 2 mg/kg; type: functional
Rattus norvegicus [12] = experiment: TNF-alpha inhibiting activity was assessed by In vivo inhibition of serum TNF production in rat, at 50 mg/kg, po; type: functional

| IC50 (Rattus norvegicus [1]) [µM] | Compound | inhibition in vivo at 50 mg/kg (Rattus norvegicus [2]) [%] | also measured |
| --- | --- | --- | --- |
| 10 | CCCCC(CC)COC(=O)c1c(NC(=O)C(C)C)sc2c1CCN(C(C)=O)C2 (stereo unspecified) | 10.6 |  |
| 22 | CC(=O)N1CCc2c(sc(NC(=O)C(C)C)c2C#N)C1 | 23.2 |  |
| 6.2 | CCOC(=O)c1c(NC(=O)N(CC)CC)sc2c1CCN(C(C)=O)C2 | 92.3 | GAG (Rattus norvegicus [6]): 119%; Femur weight (Rattus norvegicus [7]): 110%; Paw edema (Rattus norvegicus [8]): 42.5% |
| 7.1 | CC(=O)N1CCc2c(sc(NC(=O)C(C)C)c2C(=O)OC(C)C)C1 | 42.1 |  |
| 10 | CCOC(=O)c1c(NC(=O)C(C)C)sc2c1CCOC2 | 17.6 |  |
| > 100 | CC(=O)N1CCc2c(sc(NC(=O)C(C)C)c2C(=O)O)C1 |  |  |
| 13 | CCOC(=O)c1c(NC(=O)N2CCCCC2)sc2c1CCN(C(C)=O)C2 | 46.8 |  |
| 42 | CCOC(=O)c1c(NC(=O)C(C)C)sc2c1CCN(Cc1ccccc1)C2 |  |  |
| 7.9 | CCOC(=O)c1c(NC(=O)CC)sc2c1CCN(C(C)=O)C2 | 90.1 |  |
| 13 | CCOC(=O)c1c(NC(=O)Nc2cccnc2)sc2c1CCN(C(C)=O)C2 | 48.7 |  |
| 2.2 | CCOC(=O)c1c(NC(=O)N(CC)CC)sc2c1CCN(CC)C2 |  | inhibition in vivo at 50 mg/kg (Rattus norvegicus [12]): 88.7% |
| 6 | CCOC(=O)c1c(NC(=O)N2CCSC2)sc2c1CCN(CC)C2 | 5.4 |  |
| 28 | CCOC(=O)c1c(NC(=O)C(C)C)sc2c1CCCC2 | 1.8 |  |
| 17 | CCOC(=O)c1c(NC(=O)N2CCN(C)CC2)sc2c1CCN(C(C)=O)C2 | 40.7 |  |
| 22 | CCOC(=O)c1c(NC(=O)CC)sc2c1CCN(CC)C2 | 9.2 |  |

Second part, the compound before the results:

| Compound | IC50 (Rattus norvegicus [1]) [µM] | inhibition in vivo at 50 mg/kg (Rattus norvegicus [2]) [%] | also measured |
| --- | --- | --- | --- |
| CCCN(CC1CC1)C(=O)Nc1sc2c(c1C(=O)OCC)CCN(C(C)=O)C2 | 1.3 | 34.8 |  |
| AURANOFIN |  |  | GAG (Rattus norvegicus [3]): 73%; Femur weight (Rattus norvegicus [4]): 17%; Paw edema (Rattus norvegicus [5]): -4.7% |
| CCOC(=O)c1c(NC(=O)C(C)C)sc2c1CCN(C(=O)c1ccccc1)C2 | 10 | 31.8 |  |
| CCOC(=O)c1c(NC(C)=O)sc2c1CCN(C(C)=O)C2 | 13 | 78.4 |  |
| COc1ccc2c(c1)c(CC(=O)O)c(C)n2C(=O)c1ccc(Cl)cc1 [INDOMETHACIN] |  |  | GAG (Rattus norvegicus [9]): 7.4%; Femur weight (Rattus norvegicus [10]): 20%; Paw edema (Rattus norvegicus [11]): 72.1% |
| CCOC(=O)c1c(NC(=O)N2CCSCC2)sc2c1CCN(C(C)=O)C2 | 12 | 20 |  |
| CCOC(=O)c1c(NC(=O)N2CCOCC2)sc2c1CCN(C(C)=O)C2 | 1 | 90.3 |  |
| CCOC(=O)c1c(NC(=O)C(C)C)sc2c1CCSC2 | 34 | 21.2 |  |
| CCOC(=O)c1c(NC(=O)C(C)C)sc2c1CCN(C)C2 | 32 | 22.7 |  |
| CCOC(=O)c1c(NC(=O)OCCN2CCOCC2)sc2c1CCN(C(C)=O)C2 | 13 | 57.6 |  |
| CCOC(=O)Nc1sc2c(c1C(=O)OCC)CCN(C(C)=O)C2 | 20 | 57.1 |  |
| CCOC(=O)c1c(NC(=O)c2cccnc2)sc2c1CCN(C(C)=O)C2 |  | 23.5 |  |
| CCCN1CCc2c(sc(NC(=O)C(C)C)c2C(=O)OCC)C1 | 40 |  |  |
| CCOC(=O)c1c(NC(=O)C2CC2)sc2c1CCN(C(C)=O)C2 |  | 64.2 |  |
| CCOC(=O)c1c(NC(=O)N(CC)C2CCCCC2)sc2c1CCN(C(C)=O)C2 | 12 | 7.6 |  |
| CCCC(=O)Nc1sc2c(c1C(=O)OCC)CCN(C(C)=O)C2 | 28 | 33.3 |  |
| CCOC(=O)c1c(NC(=O)NC(Cc2ccccc2)C(=O)OC)sc2c1CCN(C(C)=O)C2 (stereo unspecified) | 0.9 | 8.2 |  |
| CCOC(=O)c1c(NC(=O)C(C)C)sc2c1CCN(CC)C2 | 15 | 69.2 |  |
| CCCCC(=O)Nc1sc2c(c1C(=O)OCC)CCN(C(C)=O)C2 | 18 | 42.9 |  |
| CC(=O)N1CCc2c(sc(NC(=O)C(C)C)c2C(N)=O)C1 | > 100 |  |  |
| CCOC(=O)c1c(N(C)C(=O)CC)sc2c1CCN(C(C)=O)C2 | 9 | 81 |  |
| CCOC(=O)c1c(NC(=O)CC(C)C)sc2c1CCN(C(C)=O)C2 | 20 | 33.1 |  |
| CCOC(=O)c1c(NC(=O)C(C)(C)C)sc2c1CCN(C(C)=O)C2 | 11 | 63.7 |  |
| CCOC(=O)c1c(N(C)C(=O)N(CC)CC)sc2c1CCN(C(C)=O)C2 | 12 | 51.9 |  |
| CCOC(=O)c1c(NC(=O)N2CCNCC2)sc2c1CCN(C(C)=O)C2 | 16 | 51.4 |  |
| CCOC(=O)c1c(NC(=O)N2CCN(C=O)CC2)sc2c1CCN(C(C)=O)C2 | 22 | 41.9 |  |
| CCOC(=O)c1c(NC(=O)C(C)C)sc2c1CCN(C(C)=O)C2 |  | 49.1 |  |
| CCOC(=O)c1c(NC(=O)NN2CCOCC2)sc2c1CCN(C(C)=O)C2 | 12 | 22.1 |  |
| CCNC(=O)Nc1sc2c(c1C(=O)OCC)CCN(C(C)=O)C2 | 19 | 17 |  |
